Data as given in ChEMBL document CHEMBL5665443, “Enzyme Inhibitor Single Concentration assay results for EUbOPEN Chemogenomics Library” (2024).

Key:
[1] = target: G/T mismatch-specific thymine DNA glycosylase (Homo sapiens) (UniProt Q13569); settings: Hit No;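 also: human TDG cleavage of quenched duplex DNA oligonucleotides coupled to APE1, strand release read as fluorescence at 594 nm, inhibition of TDG activity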
[2] = target: T1, Endonuclease 8-like 2 (Homo sapiens) (UniProt Q969S2); settings: Hit No;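 also: fluorescence at 594 nm reports NEIL2 cutting and release of a quenched double-stranded DNA oligo substrate, reduced signal read as inhibition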
T1 sequence (whole entry): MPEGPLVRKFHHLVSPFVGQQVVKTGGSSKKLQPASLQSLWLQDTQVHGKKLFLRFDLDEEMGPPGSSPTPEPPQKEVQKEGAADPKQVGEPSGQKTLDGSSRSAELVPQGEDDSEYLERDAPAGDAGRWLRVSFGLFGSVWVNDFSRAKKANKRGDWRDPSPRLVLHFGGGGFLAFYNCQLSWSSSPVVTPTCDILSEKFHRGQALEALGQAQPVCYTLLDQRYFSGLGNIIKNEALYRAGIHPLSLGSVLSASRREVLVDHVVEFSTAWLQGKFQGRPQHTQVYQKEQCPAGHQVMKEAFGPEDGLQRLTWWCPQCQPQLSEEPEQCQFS

[3] = target: N-glycosylase/DNA lyase (Homo sapiens) (UniProt O15527);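 also: OGG1 cleavage of a quenched duplex DNA oligonucleotide, coupled to APE1 for strand incision, read as fluorescence at 594 nm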
[4] = target: Uracil-DNA glycosylase (Homo sapiens) (UniProt P13051); settings: Hit No;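 also: UNG excision on a quenched double-stranded DNA oligo probe, with APE1 added for strand incision and turnover, read as fluorescence at 594 nm as strands separate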
[5] = target: Methyl-CpG-binding domain protein 4 (Homo sapiens) (UniProt O95243); settings: Hit No;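 also: MBD4 activity read as fluorescence at 594 nm from cleavage and release of a quenched duplex DNA oligonucleotide, with APE1 coupled to incise the strand and raise turnover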
[6] = target: T2, Endonuclease III-like protein 1 (Homo sapiens) (UniProt P78549); settings: Hit No;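 also: enzyme assay tracking NTHL1 cutting and release of a quenched double-stranded DNA oligo substrate, read as fluorescence at 594 nm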
T2 sequence (whole entry): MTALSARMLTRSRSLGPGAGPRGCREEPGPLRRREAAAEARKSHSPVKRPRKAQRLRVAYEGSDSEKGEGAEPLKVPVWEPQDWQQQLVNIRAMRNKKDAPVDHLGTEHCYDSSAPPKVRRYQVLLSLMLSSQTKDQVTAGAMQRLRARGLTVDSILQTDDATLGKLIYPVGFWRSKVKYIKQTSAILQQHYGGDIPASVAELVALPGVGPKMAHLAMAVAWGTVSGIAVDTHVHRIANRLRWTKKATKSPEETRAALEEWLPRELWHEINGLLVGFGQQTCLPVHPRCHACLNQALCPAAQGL

[7] = target: T3, Single-strand selective monofunctional uracil DNA glycosylase (Homo sapiens) (UniProt Q53HV7); settings: Hit No;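 also: enzymatic SMUG1 assay coupled with APE1, reading fluorescence at 594 nm released when a quenched double-stranded DNA oligonucleotide substrate is cleaved and separated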
T3 sequence (whole entry): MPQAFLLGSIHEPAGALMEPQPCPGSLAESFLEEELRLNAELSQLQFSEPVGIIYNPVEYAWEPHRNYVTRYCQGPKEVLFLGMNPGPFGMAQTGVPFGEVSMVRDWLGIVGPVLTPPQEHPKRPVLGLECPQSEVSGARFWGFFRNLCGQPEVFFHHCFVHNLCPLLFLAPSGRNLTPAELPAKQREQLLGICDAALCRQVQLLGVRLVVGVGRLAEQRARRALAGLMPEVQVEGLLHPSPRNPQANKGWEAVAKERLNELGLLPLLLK

[8] = target: T4, Adenine DNA glycosylase (Homo sapiens) (UniProt Q9UIF7); settings: Hit No;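 also: human MUTYH activity read as 594 nm fluorescence from cleavage and release of a quenched DNA duplex, coupled with APE1 for strand incision, lower signal meaning inhibition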
T4 sequence (whole entry): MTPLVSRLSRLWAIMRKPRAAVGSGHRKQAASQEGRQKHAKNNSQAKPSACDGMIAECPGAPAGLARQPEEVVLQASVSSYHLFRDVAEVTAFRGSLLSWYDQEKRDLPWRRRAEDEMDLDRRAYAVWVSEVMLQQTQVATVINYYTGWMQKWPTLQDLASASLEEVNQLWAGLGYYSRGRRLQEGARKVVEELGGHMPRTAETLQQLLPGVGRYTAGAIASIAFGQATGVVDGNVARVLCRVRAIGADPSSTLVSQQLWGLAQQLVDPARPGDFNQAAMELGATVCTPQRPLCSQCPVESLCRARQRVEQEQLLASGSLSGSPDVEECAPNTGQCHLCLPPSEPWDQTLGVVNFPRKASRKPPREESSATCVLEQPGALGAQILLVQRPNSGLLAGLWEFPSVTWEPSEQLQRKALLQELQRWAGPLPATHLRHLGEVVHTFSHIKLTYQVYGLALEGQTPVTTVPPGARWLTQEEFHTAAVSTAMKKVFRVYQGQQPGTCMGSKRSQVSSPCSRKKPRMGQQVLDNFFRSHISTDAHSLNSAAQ

[9] = target: Endonuclease 8-like 1 (Homo sapiens) (UniProt Q96FI4); settings: Hit No;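 also: fluorescence at 594 nm from quenched duplex DNA oligonucleotides released by NEIL1 cleavage and strand separation, reported as reduction of this enzyme activity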
[10] = Compound Concentration 10.0 uM, Hit No
[11] = Compound Concentration 1.0 uM, Hit No

Sequence of Uracil-DNA glycosylase (Homo sapiens) (P13051 whole entry, the tested form may be a part): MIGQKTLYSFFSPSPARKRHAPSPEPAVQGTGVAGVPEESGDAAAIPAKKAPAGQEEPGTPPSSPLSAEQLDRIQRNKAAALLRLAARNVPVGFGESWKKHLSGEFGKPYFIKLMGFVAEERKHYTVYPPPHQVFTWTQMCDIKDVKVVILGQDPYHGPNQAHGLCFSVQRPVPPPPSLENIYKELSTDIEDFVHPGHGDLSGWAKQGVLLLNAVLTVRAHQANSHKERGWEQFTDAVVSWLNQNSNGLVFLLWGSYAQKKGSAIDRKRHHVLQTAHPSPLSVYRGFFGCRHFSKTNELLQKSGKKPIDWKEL
Sequence of Endonuclease 8-like 1 (Homo sapiens) (Q96FI4 whole entry): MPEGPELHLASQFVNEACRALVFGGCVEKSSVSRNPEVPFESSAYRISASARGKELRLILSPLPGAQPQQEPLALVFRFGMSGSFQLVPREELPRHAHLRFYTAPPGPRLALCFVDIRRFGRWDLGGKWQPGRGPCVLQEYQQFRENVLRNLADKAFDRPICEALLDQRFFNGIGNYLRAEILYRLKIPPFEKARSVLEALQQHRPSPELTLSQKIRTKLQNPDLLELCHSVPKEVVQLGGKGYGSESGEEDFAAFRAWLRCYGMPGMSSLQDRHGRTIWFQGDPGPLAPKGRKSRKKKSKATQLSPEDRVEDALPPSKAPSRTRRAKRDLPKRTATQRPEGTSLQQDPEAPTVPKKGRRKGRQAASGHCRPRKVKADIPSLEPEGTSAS
Sequence of Methyl-CpG-binding domain protein 4 (Homo sapiens) (O95243 whole entry, the tested form may be a part): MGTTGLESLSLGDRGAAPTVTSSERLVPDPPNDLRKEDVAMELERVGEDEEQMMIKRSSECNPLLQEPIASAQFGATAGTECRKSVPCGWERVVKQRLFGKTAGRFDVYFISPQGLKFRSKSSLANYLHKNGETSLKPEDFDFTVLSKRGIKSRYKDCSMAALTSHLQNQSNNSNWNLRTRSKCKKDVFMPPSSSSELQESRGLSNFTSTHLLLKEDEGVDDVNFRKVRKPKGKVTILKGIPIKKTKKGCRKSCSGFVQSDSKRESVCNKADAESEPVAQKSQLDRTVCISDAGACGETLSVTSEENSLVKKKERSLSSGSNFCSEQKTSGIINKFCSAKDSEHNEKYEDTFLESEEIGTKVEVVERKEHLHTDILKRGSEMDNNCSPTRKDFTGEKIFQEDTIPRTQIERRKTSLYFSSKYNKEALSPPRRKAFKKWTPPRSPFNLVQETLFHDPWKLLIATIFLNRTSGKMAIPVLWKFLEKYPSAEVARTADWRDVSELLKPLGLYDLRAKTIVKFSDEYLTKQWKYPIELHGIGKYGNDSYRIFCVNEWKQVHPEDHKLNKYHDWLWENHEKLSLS
Sequence of N-glycosylase/DNA lyase (Homo sapiens) (O15527 whole entry): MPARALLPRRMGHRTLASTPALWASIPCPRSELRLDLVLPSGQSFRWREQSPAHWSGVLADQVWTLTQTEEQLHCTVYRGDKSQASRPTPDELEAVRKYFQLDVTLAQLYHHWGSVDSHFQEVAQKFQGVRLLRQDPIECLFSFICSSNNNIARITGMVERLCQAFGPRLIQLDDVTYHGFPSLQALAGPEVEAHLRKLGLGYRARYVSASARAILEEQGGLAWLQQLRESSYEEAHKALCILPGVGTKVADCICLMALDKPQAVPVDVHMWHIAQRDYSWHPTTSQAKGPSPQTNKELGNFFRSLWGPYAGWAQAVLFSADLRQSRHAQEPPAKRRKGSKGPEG
Sequence of G/T mismatch-specific thymine DNA glycosylase (Homo sapiens) (Q13569 whole entry): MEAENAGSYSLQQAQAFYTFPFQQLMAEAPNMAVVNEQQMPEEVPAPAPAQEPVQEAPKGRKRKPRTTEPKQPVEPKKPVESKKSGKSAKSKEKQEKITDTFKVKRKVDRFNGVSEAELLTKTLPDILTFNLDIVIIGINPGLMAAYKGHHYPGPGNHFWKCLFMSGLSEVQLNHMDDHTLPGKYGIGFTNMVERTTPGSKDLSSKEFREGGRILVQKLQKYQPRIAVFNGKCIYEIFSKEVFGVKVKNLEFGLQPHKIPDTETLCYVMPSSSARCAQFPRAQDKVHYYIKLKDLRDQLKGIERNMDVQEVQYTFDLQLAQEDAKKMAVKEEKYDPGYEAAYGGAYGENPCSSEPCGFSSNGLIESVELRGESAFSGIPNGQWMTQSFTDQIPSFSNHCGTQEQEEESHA

Row | Structure (SMILES) | inhibition ([1]; Compound Concentration 10.0 uM) [%] | inhibition ([2]; Compound Concentration 10.0 uM) [%] | inhibition [3, 10] [%] | inhibition ([4]; Compound Concentration 10.0 uM) [%] | inhibition ([5]; Compound Concentration 10.0 uM) [%] | inhibition ([6]; Compound Concentration 10.0 uM) [%] | inhibition ([7]; Compound Concentration 10.0 uM) [%] | inhibition ([8]; Compound Concentration 10.0 uM) [%] | inhibition ([9]; Compound Concentration 10.0 uM) [%] | inhibition ([1]; Compound Concentration 1.0 uM) [%] | inhibition ([2]; Compound Concentration 1.0 uM) [%] | inhibition [3, 11] [%] | inhibition ([4]; Compound Concentration 1.0 uM) [%] | inhibition ([5]; Compound Concentration 1.0 uM) [%] | inhibition ([6]; Compound Concentration 1.0 uM) [%] | inhibition ([7]; Compound Concentration 1.0 uM) [%] | inhibition ([8]; Compound Concentration 1.0 uM) [%] | inhibition ([9]; Compound Concentration 1.0 uM) [%] | inhibition ([3]; Compound Concentration 10.0 uM, Hit Yes) [%]
1 | Oc1ccc2c3c1O[C@H]1c4[nH]c5c(c4C[C@@]4(O)[C@@H](C2)N(CC2CC2)CC[C@]314)C[C@@]1(O)[C@H]2Cc3ccc(O)c4c3[C@@]1(CCN2CC1CC1)[C@H]5O4 | 10.6 | -3.73 | 7.55 | 1.76 | -5.37 | 5.59 | -7.06 | -2.67 | -5.39 |  |  |  |  |  |  |  |  |  | 
2 | CCCCCCCN(CCc1ccc(SC(C)(C)C(=O)O)cc1)C(=O)Nc1ccc(F)cc1F | 50.5 | -7.12 | 44.6 | 3.11 | 74.5 | 5.29 | 26.9 | 26 | -8.92 |  |  |  |  |  |  |  |  |  | 
3 | Cc1cccc(-c2[nH]c(CNc3ccccc3F)nc2-c2ccc3ncnn3c2)n1 |  |  |  |  |  |  |  |  |  | 35.6 | 6.16 | 4.54 | -5.91 | 12.7 | -6.89 | -5.72 | 6.74 | -2.11 | 
4 | CN(C)CC#Cc1ccc2[nH]c3c(c2c1)-c1nc(N)ncc1CCC3 |  |  |  |  |  |  |  |  |  | 46.8 | 4.81 | 3.18 | 3.22 | 3.44 | 10.6 | 11.2 | 1.71 | 2.65 | 
5 | CCN(CC)CCCCNc1ncc2cc(-c3cc(OC)cc(OC)c3)c(NC(=O)NC(C)(C)C)nc2n1 |  |  |  |  |  |  |  |  |  | 36.3 | 3.2 | -1.83 | 4.12 | 12 | -4.79 | 21.2 | 14.1 | 6.87 | 
6 | Cc1ccccc1Oc1cc(-n2c(=O)cc(C(F)(F)F)[nH]c2=O)c2ccccc2c1Cl | 54.4 | -1.25 | 50.6 | -2.65 | 68.2 | -1.29 | 29.1 | 0.715 | 7.74 |  |  |  |  |  |  |  |  |  | 
7 | CCCCN1CCC(COC(=O)c2cc(Cl)c(N)c3c2OCCO3)CC1 | 14.3 | 2.51 | -1.24 | -2.45 | 4.39 | -3.21 | 8.49 | -7.02 | 5.28 |  |  |  |  |  |  |  |  |  | 
8 | CC[C@H](C)C(=O)O[C@H]1C[C@@H](C)C=C2C=C[C@H](C)[C@H](CC[C@@H]3C[C@@H](O)CC(=O)O3)[C@H]21 | 49.6 | 4.61 | 11.4 | 8.04 | 71.5 | 5.94 | 15.8 | 12.1 | -4.68 |  |  |  |  |  |  |  |  |  | 
9 | Cc1oc2ccccc2c1Cc1cc(I)c(OCC(=O)O)c(I)c1 | 98.9 | 3.34 |  | 6.35 | 67.1 | 17.8 | 47.4 | 29.3 | 0.619 |  |  |  |  |  |  |  |  |  | 91.8
10 | CC(C)c1ccc(CC(=O)N2CCC[C@@H](c3cccc(OC(C)(C)C(=O)O)c3)C2)cc1 | 47.9 | 4.61 | -4.05 | 3.87 | 54.2 | 8.57 | 12.4 | -0.105 | -5.29 |  |  |  |  |  |  |  |  |  | 
11 | CC(=O)Nc1c(F)cc(C(=O)N[C@H]2CC[C@H](O)CC2)cc1O[C@@H](C)c1ccccc1 | 69.8 | -0.489 | 12.6 | 5.95 | 61.8 | 5.29 | 12.7 | 6.45 | 2.28 |  |  |  |  |  |  |  |  |  | 
12 | CCC(=N\O)/C(C)=C/c1ccc(F)c(C)c1 | 41.4 | 0.276 | 16.2 | 3.87 | 64.7 | -5.23 | 22.6 | -0.87 | -2.41 |  |  |  |  |  |  |  |  |  | 
13 | Nc1ncnc2c1ncn2[C@@H]1O[C@H](CO)[C@@H](O)[C@H]1O | 6.82 | 2.76 | -6.13 | -7.49 | -3.22 | 2.66 | -2.21 | 17.8 | 8.25 |  |  |  |  |  |  |  |  |  | 
14 | CCCCN(Cc1ccccc1)C(=O)c1ccc(S(=O)(=O)Nc2ccccc2)cc1 | 61.1 | -10 | 15.6 | 2.05 | -4.89 | 2.88 | 26.3 | 28.5 | -9.37 |  |  |  |  |  |  |  |  |  | 
15 | c1ccc(C2CCN(c3cnc4c(N5CCOCC5)nccn34)CC2)cc1 | 55.2 | -2.53 | 16.2 | 7.59 | 75 | -2.6 | 23 | 15.4 | -3.17 |  |  |  |  |  |  |  |  |  | 
16 | Cc1cc(OCCC(C)(C)O)cc(C)c1-c1ccc(F)c2c1CC[C@H]2Oc1ccc2c(c1)OC[C@H]2CC(=O)O | 61.7 | -1.76 | 78.7 | 1.96 | 64.2 | -4.57 | 18.5 | 10 | -2.26 |  |  |  |  |  |  |  |  |  | 
